Laboratory results published in ChEMBL document CHEMBL1201862, “PubChem BioAssay data set” (2004).
Active and inactive are the calls of the source.

Columns and labels:
Cytochrome P450 1A2 = biological target: T1, Cytochrome P450 1A2 (Homo sapiens, UniProt P05177);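 also: PubChem cytochrome P450 panel assay, CYP1A2 panel member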
T1 sequence (P05177 whole entry): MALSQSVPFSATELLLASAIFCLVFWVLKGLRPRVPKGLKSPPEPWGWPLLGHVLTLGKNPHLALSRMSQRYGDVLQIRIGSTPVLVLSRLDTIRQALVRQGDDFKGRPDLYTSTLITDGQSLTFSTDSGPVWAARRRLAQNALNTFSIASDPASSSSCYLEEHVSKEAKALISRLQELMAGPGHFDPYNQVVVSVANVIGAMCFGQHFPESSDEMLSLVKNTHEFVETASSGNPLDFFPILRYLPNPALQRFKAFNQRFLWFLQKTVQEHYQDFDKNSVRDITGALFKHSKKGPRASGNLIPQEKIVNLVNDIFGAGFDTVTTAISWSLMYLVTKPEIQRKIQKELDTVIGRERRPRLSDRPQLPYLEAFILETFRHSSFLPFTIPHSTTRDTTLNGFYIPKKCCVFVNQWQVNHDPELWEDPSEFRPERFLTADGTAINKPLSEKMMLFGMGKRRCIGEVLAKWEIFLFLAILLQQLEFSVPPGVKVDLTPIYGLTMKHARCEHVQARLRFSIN

[1] = system: Streptococcus sp. 'group A'; experiment: Streptococcus pyogenes SK(-)GAS viability under kanamycin – luminescence, BacTiterGlo, confirmation, counter-screen for streptokinase expression inhibitor project, dose response (AID 1900); assay type: functional, organism-based
Streptococcus = experiment: GAS UMAA2166 growth inhibition – luminescence, BacTiterGlo, counter-screen for streptokinase expression inhibitor project, dose response (AID 1915); assay type: functional, organism-based;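 also: potency for reduction of bacterial viability or growth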
Cytochrome P450 2C19 = Cytochrome P450 2C19 (Homo sapiens, UniProt P33261); experiment: Cytochrome panel assay with activity outcomes. Panel member name: p450-cyp2c19 Compounds with AC50 equal or less than 10 uM are considered active; assay type: functional
Sequence of Cytochrome P450 2C19 (P33261 whole entry): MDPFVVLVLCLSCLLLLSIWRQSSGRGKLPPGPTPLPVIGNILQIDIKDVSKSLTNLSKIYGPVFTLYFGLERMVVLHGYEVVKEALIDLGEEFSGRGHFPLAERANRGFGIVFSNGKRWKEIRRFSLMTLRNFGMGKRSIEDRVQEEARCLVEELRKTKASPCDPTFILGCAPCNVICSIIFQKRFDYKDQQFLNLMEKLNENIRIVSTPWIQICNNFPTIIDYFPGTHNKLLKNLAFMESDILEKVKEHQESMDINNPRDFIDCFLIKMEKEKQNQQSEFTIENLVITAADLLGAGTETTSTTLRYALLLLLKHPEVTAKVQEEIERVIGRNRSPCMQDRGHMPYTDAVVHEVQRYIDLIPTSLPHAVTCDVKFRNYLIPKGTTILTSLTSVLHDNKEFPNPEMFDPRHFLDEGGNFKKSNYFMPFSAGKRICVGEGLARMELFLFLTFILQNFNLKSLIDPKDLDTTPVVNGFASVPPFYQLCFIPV

[2] = Trypanosoma cruzi growth suppression in host cells – NIH3T3 host cells, beta-gal luminescence, confirmation (AID 2044); assay type: functional, cell-based;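 also: intracellular parasites grown in NIH/3T3 mouse fibroblasts as host cells; luminescent beta-galactosidase reporter signal from transgenic T. cruzi replicating inside host cells; inhibitors lower the luminescence signal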
[3] = NIH3T3 cell viability loss – ATP luminescence, mouse fibroblasts, counter-screen, dose response (AID 2010); assay type: functional, cell-based;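 also: cells exposed to compound for about 90 hours before reading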
Cytochrome P450 3A4 = Cytochrome P450 3A4 (Homo sapiens, UniProt P08684);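 also: CYP3A4 tested as one member of a cytochrome P450 panel screen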
Sequence of Cytochrome P450 3A4 (P08684 whole entry): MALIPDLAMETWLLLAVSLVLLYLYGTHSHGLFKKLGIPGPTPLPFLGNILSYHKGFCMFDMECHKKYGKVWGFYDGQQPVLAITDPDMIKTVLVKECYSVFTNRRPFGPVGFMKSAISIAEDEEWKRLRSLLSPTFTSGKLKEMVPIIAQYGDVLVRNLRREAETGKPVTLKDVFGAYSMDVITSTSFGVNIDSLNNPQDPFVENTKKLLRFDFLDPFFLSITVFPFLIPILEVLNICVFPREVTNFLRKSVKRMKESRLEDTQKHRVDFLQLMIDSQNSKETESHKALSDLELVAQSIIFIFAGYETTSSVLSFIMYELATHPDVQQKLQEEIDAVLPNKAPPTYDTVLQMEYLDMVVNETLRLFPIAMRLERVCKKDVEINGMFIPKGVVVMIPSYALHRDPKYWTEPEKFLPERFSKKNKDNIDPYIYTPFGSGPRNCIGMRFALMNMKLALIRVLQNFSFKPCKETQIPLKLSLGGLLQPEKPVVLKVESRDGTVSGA

[4] = Luminescence Cell-Based Dose Retest to Confirm Inhibitors of Cancer Stem Cells. [Related pubchem assays (depositor defined):AID2717, AID2721]; assay type: functional; settings: Homo sapiens

## CC(C)[C@@H]1CN[C@H](C(=O)O)[C@@H]1CC(=O)O
Cytochrome P450 1A2
  AC50: 39.8 µM (inconclusive)

## N#C/C(=C(/O)c1ccc2c(c1)OCO2)c1nc2cc(C(F)(F)F)ccc2s1
[1]
  EC50: 2.89 µM (active)
Streptococcus
  EC50: 4.33 µM (active)

## CN(Cc1ccco1)c1ccnc(-c2cccc(NS(C)(=O)=O)c2)n1
Cytochrome P450 2C19; read-out: AC50
  AC50: 25.1 µM (inconclusive)

## COc1ccc(CCn2c(SCCN3CCCCC3)nc3ccccc3c2=O)cc1OC
[2]
  EC50: 0.936 µM (active)
[3]
  EC50: > 60 µM (not active)

## CN1CCC(N(C)C(=O)c2ccccc2Nc2ccc(SC(F)F)cc2)CC1
[2]
  EC50: 0.384 µM (active)
[3]
  EC50: > 60 µM (not active)

## COc1ccc(N=C(S)NC(NC(=O)c2cccc3ccccc23)C(Cl)(Cl)Cl)c([N+](=O)[O-])c1 (stereo unspecified)
[2]
  EC50: 2.25 µM (active)
[3]
  EC50: > 30 µM (not active)

## Cn1cccc1C(=O)N1CCC[C@@]2(CCN(c3ccccn3)C2)C1
Cytochrome P450 2C19; read-out: AC50
  AC50: 39.8 µM (inconclusive)
Cytochrome P450 1A2
  AC50: 31.6 µM (inconclusive)
Cytochrome P450 3A4
  AC50: 12.6 µM (inconclusive)

## CC(C)(C)c1ccc(C(=O)Nc2ccc(N3CCOCC3)cc2)cc1
[4]
  AC50: 4.04 µM (active)

## c1csc(CNCCCN2CCOCC2)c1
Cytochrome P450 2C19; read-out: AC50
  AC50: 14.1 µM (inconclusive)

## CN(C)C(=N)NCCC[C@H](N)C(=O)O
Cytochrome P450 2C19
  AC50: inconclusive

## O[C@@H](c1cc(-c2ccc(Cl)cc2)nc2ccccc12)[C@@H]1CCCCN1
Cytochrome P450 2C19; read-out: AC50
  AC50: 6.31 µM (inconclusive)

## N#Cc1cccc(NC(=O)N2CC3(CCN(C(=O)c4ccco4)CC3)C2)c1
Cytochrome P450 2C19; read-out: AC50
  AC50: 2 µM (inconclusive)
Cytochrome P450 1A2
  AC50: 25.1 µM (inconclusive)

## O[C@@H]1[C@@H]2c3cc4c(cc3CN3CCC(=C[C@@H]1O)[C@H]23)OCO4
Cytochrome P450 1A2
  AC50: 15.8 µM (inconclusive)

## CN1CCN(CC(O)COCCOc2ccc(Br)cc2)CC1 (stereo unspecified)
[2]
  EC50: 0.542 µM (active)
[3]
  EC50: > 60 µM (not active)

## COc1ccc(Oc2nc3ccccc3nc2C(F)(F)F)cc1
Cytochrome P450 2C19; read-out: AC50
  AC50: 3.16 µM (inconclusive)

## C[C@@H]1c2ccccc2CN1CC1=NCCN1
Cytochrome P450 1A2
  AC50: 31.6 µM (inconclusive)
Cytochrome P450 3A4
  AC50: 31.6 µM (inconclusive)

## CCOC(=O)Nc1ccc2c(c1)N(C(=O)CCN1CCOCC1)c1ccccc1S2 [MORICIZINE]
[2]
  EC50: 5.85 µM (active)
[3]
  EC50: > 60 µM (not active)

## Clc1ccccc1-c1nc(NC2CCNCC2)c2ccccc2n1
Cytochrome P450 1A2
  AC50: 20 µM (inconclusive)

## C[C@@H]1/C=C\CC(=O)OC[C@H](C)C(=O)N[C@@H](C)C(=O)OC1
Cytochrome P450 2C19
  AC50: inconclusive

## Cc1nn(-c2ccc(F)cc2)c2nc(N)c(C#N)c(-c3ccc(O)c(O)c3)c12
[2]
  EC50: 2.04 µM (active)
[3]
  EC50: 15.6 µM (active)

## O=S(=O)(NCc1cn2ccsc2n1)c1ccc(Oc2ccccc2)cc1
Cytochrome P450 1A2
  AC50: 5.01 µM (inconclusive)

## Cc1nc2c(-c3ccccc3)cnn2c(O)c1Cc1ccccc1
[2]
  EC50: 2.22 µM (active)
[3]
  EC50: 14.6 µM (active)

## O=C(NC1CCCN(CCc2ccccc2)C1)C1CCCC1 (stereo unspecified)
[2]
  EC50: 1.3 µM (active)
[3]
  EC50: > 60 µM (not active)

## O=C(CCn1cnc(-c2ccccc2)c1-c1ccccc1)N/N=C/c1ccccc1O
[1]
  EC50: 0.47 µM (active)
Streptococcus
  EC50: 2.13 µM (active)

## CC(C)(C)C1CCC(OCC(O)CN2CCN(Cc3ccccc3)CC2)CC1 (stereo unspecified)
[2]
  EC50: 1.15 µM (active)
[3]
  EC50: > 60 µM (not active)

## Cc1ccc(-n2cc(CN(C)Cc3ncc[nH]3)c(-c3cccc(C)c3)n2)cc1
[2]
  EC50: 1.16 µM (active)
[3]
  EC50: > 60 µM (not active)

## COCC(=O)N1CCC2(CCN(Cc3ccncc3)CC2)CC1
Cytochrome P450 3A4
  AC50: 15.8 µM (inconclusive)

## O=c1c(-c2cccc(Cl)c2)nc2cncnc2n1Cc1ccc(F)cc1
Cytochrome P450 3A4
  AC50: 15.8 µM (inconclusive)

## Cn1cccc1C(=O)N1CCC2(CCCN(Cc3ccncc3)C2)CC1
Cytochrome P450 2C19; read-out: AC50
  AC50: 15.8 µM (inconclusive)
Cytochrome P450 1A2
  AC50: 15.8 µM (inconclusive)
Cytochrome P450 3A4
  AC50: 3.98 µM (inconclusive)

## Cn1c(=O)c2c(nc(C(=N)SCC(=O)O)n2C)n(C)c1=O
Cytochrome P450 2C19
  AC50: inconclusive

## O=C(O)C(Cc1ccccc1)Cc1ccccc1
Cytochrome P450 1A2
  AC50: 0.00501 µM (inconclusive)

## CN1CCN(Cc2nc3cccc4c3c([n+]2[O-])-c2ccccc2-4)CC1
Cytochrome P450 3A4
  AC50: 3.98 µM (inconclusive)

## CC(=O)Nc1ccc(S(=O)(=O)NC(CC(=O)NCCCN2CCOCC2)C(C)C)cc1 (stereo unspecified)
Cytochrome P450 3A4
  AC50: 31.6 µM (inconclusive)

## CC(C)CC(=O)O/N=C1\C(=O)N(Cc2ccc(Cl)cc2)c2ccc([N+](=O)[O-])cc21
[2]
  EC50: 4.6 µM (active)

## Cc1nc2cnc(Oc3cccc(Cl)c3)nc2n(CCc2ccccc2)c1=O
Cytochrome P450 2C19; read-out: AC50
  AC50: 7.94 µM (inconclusive)

## Cc1nc(NC(=O)c2ccccc2)sc1-c1csc(NCCc2ccccc2)n1
[2]
  EC50: 2.25 µM (active)
[3]
  EC50: > 60 µM (not active)

## NC(=O)CC(NC(=O)c1ccc(Br)cc1)c1ccc(NCc2ccc(F)cc2)c([N+](=O)[O-])c1 (stereo unspecified)
[4]
  AC50: 3.96 µM (active)

## Cc1nnc(-c2cnn(-c3ccccc3)c2N)n1Cc1ccc(F)cc1
Cytochrome P450 3A4
  AC50: 25.1 µM (inconclusive)

## O=C(Nc1cc(Sc2nc3ccccc3s2)cc([N+](=O)[O-])c1)c1ccccc1
[2]
  EC50: 1.42 µM (active)
[3]
  EC50: > 60 µM (not active)

## O[C@@H]1[C@@H](OCc2ccccc2)OC[C@H](O)[C@@H]1O
Cytochrome P450 2C19
  AC50: inconclusive

## O=C(c1ccc2c(c1)OCO2)C1CCCN(C2CCN(CCc3ccccc3)CC2)C1 (stereo unspecified)
[2]
  EC50: 1.72 µM (active)
[3]
  EC50: > 60 µM (not active)

## COc1ccc(/C=N\N=C(N)N)cc1
[2]
  EC50: 0.854 µM (active)
[3]
  EC50: > 60 µM (not active)

## CC(=O)Nc1ccc(/C(C)=N/Nc2nc(Nc3ccccc3)nc(N3CCOCC3)n2)cc1
[2]
  EC50: 0.345 µM (active)
[3]
  EC50: 50.7 µM (active)

## Cc1cccc(CNc2ncnc3ccc(-c4cccnc4)cc23)c1
Cytochrome P450 2C19; read-out: AC50
  AC50: 39.8 µM (inconclusive)

## COc1cccc(CC2(CO)CCCN(Cc3ccc(-c4ccco4)cc3)C2)c1 (stereo unspecified)
[2]
  EC50: 0.621 µM (active)
[3]
  EC50: > 60 µM (not active)

## CCn1c(SCC(=O)Nc2sc3c(c2C#N)CCC(C(C)(C)C)C3)nnc1-c1ccco1 (stereo unspecified)
Cytochrome P450 2C19; read-out: AC50
  AC50: 20 µM (inconclusive)

## CC1CCCC(NC(=O)C2CCN(S(=O)(=O)N3CCOCC3)CC2)C1C (stereo unspecified)
Cytochrome P450 3A4
  AC50: 11.2 µM (inconclusive)

## CC(=O)NCCNc1ncncc1-c1ccc(N(C)C)cc1
Cytochrome P450 2C19; read-out: AC50
  AC50: 20 µM (inconclusive)

## N=C(C[C@@H](O)COc1ccccc1-c1ccccc1)N1CCCCC1
Cytochrome P450 1A2
  AC50: 39.8 µM (inconclusive)

## Cc1cc(C)cc(Oc2ncnc3c2ncn3Cc2c(Cl)cccc2Cl)c1
[2]
  EC50: 1.95 µM (active)
[3]
  EC50: > 60 µM (not active)

## COc1ccc(Cl)cc1C(=O)Nn1cnc2ccccc2c1=O
Cytochrome P450 2C19; read-out: AC50
  AC50: 11.2 µM (inconclusive)
Cytochrome P450 3A4
  AC50: 25.1 µM (inconclusive)

## COc1ccccc1/C=C/C=N/N1CCN(Cc2cccc3ccccc23)CC1
Cytochrome P450 3A4
  AC50: 12.6 µM (inconclusive)

## C=CCN1C[C@H](C)N([C@H](c2ccc(C(=O)N(CC)CC)cc2)c2cccc(O)c2)C[C@H]1C
Cytochrome P450 1A2
  AC50: 39.8 µM (inconclusive)

## CCCOc1ccc(/C=C/C(=O)Nc2ccc([N+](=O)[O-])cc2C)cc1OC
Cytochrome P450 3A4
  AC50: 2.82 µM (inconclusive)

## CCN(CC)S(=O)(=O)c1ccc2c(c1)c(=O)c(C(=O)NCCN(C)CCc1ccccc1)cn2C
[2]
  EC50: 0.991 µM (active)
[3]
  EC50: > 60 µM (not active)

## CN1CCN(C(=O)COc2ccc(S(=O)(=O)Nc3ccc(F)cc3)cc2)CC1
[2]
  EC50: 0.142 µM (active)
[3]
  EC50: > 60 µM (not active)

## COCC(=O)Oc1c(S(=O)(=O)c2ccc(C)cc2)c(C)nn1-c1ccccc1
Cytochrome P450 2C19; read-out: AC50
  AC50: 28.2 µM (inconclusive)
Cytochrome P450 1A2
  AC50: 6.31 µM (inconclusive)
